# Source: patent US8906884B2, “Method of treating graft-rejection using dextran sulfate” (TX Medic AB, priority 2002, dated 2014)
# Like-named read-outs stand apart in the source and are kept apart here.
# Experiments:
# [1] = cited from earlier work
# [2] = system: clot formation induced by API in human blood; conditions: for Clot formation / clotting time versus no additives: 0.01 and 0.1 mg/ml, in words
# Experimental: Blood was drawn from four healthy volunteers into Vacutainer™ tubes containing citrate. Whole blood (980 μl) was incubated with 2 μl of API at 37° C. in polypropylene sample cups in a ReoRox™ rheometer (Global Haemostasis International, Gothenburg, Sweden). […] Every 6 s, the cup was set into free torsional oscillation around its vertical axis, and the damping and frequency of the oscillation was registered. Clotting time was identified as the point of maximal damping.
# [3] = system: Porcine aortic endothelial cells; conditions: 25 mg/ml, in words; cited from earlier work
# [4] = system: IBMIR triggered by API in fresh human blood
# Experimental: (§1) This protocol is basically performed as previously described with some modifications. In general words, loops made of PVC (diameter 6.3 mm, length 390 mm), whose inner surface was furnished with immobilized heparin, were used. The tubing was held together with a specially designed heparinized connector. A circular loop was formed when the ends of the connector were tightly pushed into the lumen of the tubing ends. A rocking apparatus, placed in a 37° C. incubator, was used to generate blood flow inside the loops. The loops were rocked at a setting that prevented the blood from coming in contact with the connectors.
# (§2) Seven 60-min islet experiments were performed, using API isolated from four different pigs. […] For each experiment, one loop containing fresh human blood and saline without API was included as a control. […] Concurrently, pre-incubation of human blood with 1 mg/ml of LMW-dextran, which was not sulfated, was tested in five experiments. In each experiment, 7 ml of fresh human blood from the same donor was added to each loop. […] Thereafter, the loops were opened, and 100 μl of saline with or without 5 μl of API (approximately 5,000 IEQ) was added to the loops and followed by another 60-min incubation on the rocking device at 37° C. Blood glucose levels were measured with a glucometer (Glucometer Elite; Bayer Diagnostics, Leverkusen, Germany) before the perfusion.
# After every perfusion, the loop contents were filtered through 70 μm-diameter filters (Filcons, Cuptype; DAKO, Denmark). Both macroscopic blood clots and tissue recovered on the filters were snap-frozen in isopentane for immunohistochemical staining. The remaining filtered blood was collected in 4.1 mM EDTA (final concentration) and used for hematological analysis (platelets, lymphocytes, monocytes, and granulocytes) and assays of coagulation activation (thrombin-antithrombin [TAT], factor XIa-antithrombin complexes [FXIa-AT], and factor XIIa-antithrombin complexes [FXIIa-AT]), fibrinolysis activation (plasmin-alpha 2 antiplasmin complexes [PAP]), complement activation (C3a and sC5b-9), and C1 esterase inhibitor activation (factor XIa-C1 esterase inhibitor [FXIa-C1 INH], factor XIIa-C1 esterase inhibitor [FXIIa-C1 INH]). Samples taken at 0, 15, and 30 min were also analyzed. In 0-min samples, the blood was not added to the tubing loop but was instead transferred immediately to the EDTA-containing tubes. The blood samples were centrifuged at 4° C. at 3290×g for 20 min, and the plasma was collected and stored at −70° C. until analyzed.
# Platelet counts and differential leukocyte counts were analyzed on a Coulter ACT-diff analyzer (Beckman Coulter, Fla., USA) using EDTA-treated blood. TAT and PAP were quantified using commercially available enzyme immunoassays (EIA) kits (Enzygnost TAT, Behringswerke, Marburg, Germany; Imuclone® PAP, American Diagnostica Inc., Greenwich, USA). FXIa-AT, FXIIa-AT, FXIa-C1 INH, and FXIIa-C1 INH were analyzed according to the method of Sanchez et al.. C3a was analyzed as previously described by Nilsson Ekdahl et al., and sC5b-9 was analyzed using a modification of the EIA described by Mollnes et al..
# [5] = system: pig lungs; conditions: 2 mg/ml; HAR after 30 min without; cited from earlier work
# [6] = system: STZ-induced diabetic mice; conditions: intraperitoneal, intrahepatic islets, in words; cited from earlier work
# [7] = system: complement system; conditions: FIG. 3, in words
# Experimental: At 5, 10, 15, 30, 45, and 60 min after serum incubation at 37° C., 100 μl of serum was transferred to tubes containing 10 mM EDTA. These samples were stored at −70° C. before analysis of the complement components C3a and sC5b-9.
# Filled bars represent generation of C3a and unfilled correspond to sC5b-9.
# [8] = system: API graft in diabetic athymic mice; conditions: implantation site liver, i.v. treatment, n = 5; duration of normoglycemia
# Experimental: Diabetes was induced in athymic mice by intravenous (i.v.) injection of steptozotocin from Sigma Chemicals (Palo Alto, Calif., USA) according to Wennberg et al.. The steptozotocin dose was 250 mg/kg body weight for the athymic mice. An animal was considered diabetic if its blood glucose (B-glucose) level exceeded 20 mmol/l (>360 mg/dl) for 2 or more consecutive days.
# (§3) After being cultured for 4 days, 5 μl of API (˜5000 IEQs) from five isolations were transplanted into the liver via the portal vein of 11 male inbred diabetic athymic mice, which were anesthetized during surgery with isoflurene. […] Six (untreated) mice were injected with an equivalent volume of saline in the same manner.
# Blood glucose levels were measured in blood obtained from tails of recipients using a Glucometer Elite® B-glucose measuring instrument (Bayer AB, Gothenburg, Sweden). Measurements were taken daily before 12 am and expressed as mmol/l (1 mmol/l≈18 mg/dl). Loss of graft function was considered to have occurred if B-glucose levels exceeded 11.1 mmol/l (>200 mg/dl) for 2 or more consecutive days. Post-transplant duration of normoglycemia (<200 mg/dl) was defined as the graft survival period.
# [9] = system: porcine islets perfused with human blood
# Experimental: as §1, §2
# (§4) Islets were sectioned and subsequently stained with horseradish peroxidase (HRP) conjugated mouse anti-human CD41a (R&D Systems, Abigdon, UK) and anti-CD11b^+ (Clone 2LPM 19c, DAKO, Carpinteria, Calif., USA). In the in vivo study, the API-containing mouse livers were retrieved 10 days after transplantation and snap-frozen in isopentane. The samples were sectioned and stained with guinea pig anti-insulin (DAKA, Carpinteria, Calif., USA) and rat anti-mouse CD11b^+ (Serotec Ltd. Scandinavia, Oslo, Norway).
# [10] = system: porcine islets transplanted into diabetic athymic mice
# Experimental: as §3, §4
# [11] = continuous injection about 45 mg/hour, in words
# [12] = Table 4 comparison, 60 min API perfusion, 1 mg/ml, n = 5
# [13] = after 60 min perfusion, API with 0.01 mg/ml, n = 7
# [14] = after 60 min perfusion, API with 0.1 mg/ml, n = 7
# [15] = after 60 min perfusion, API with 1 mg/ml, n = 7
substance,measurement,setting,value
dextran sulfate [dextran sulfate (MW 8 000 Da)],Blood concentration,[1]; continuous injection about 45 mg/hour for 2-3 weeks,approximately 0.01 mg/ml
same,Alopecia,[1]; [11],reported in about half of the patients
same,Thrombocytopenia,[1]; [11],observed after 3 days treatment
High molecular weight dextran sulfate [HMW-DS],Clot formation / clotting time versus no additives,[2],inhibited clot formation only at 0.1 mg/ml
same,Clotting time,"[2]; experiment 1, 0.01 mg/ml",15.8 min
same,Clotting time,"[2]; experiment 1, 0.1 mg/ml",>60 min
same,Clotting time,"[2]; experiment 2, 0.01 mg/ml",36.9 min
same,Clotting time,"[2]; experiment 2, 0.1 mg/ml",>60 min
same,Clotting time,"[2]; experiment 3, 0.01 mg/ml",21.0 min
same,Clotting time,"[2]; experiment 3, 0.1 mg/ml",>60 min
same,Clotting time,"[2]; experiment 4, 0.01 mg/ml",38.3 min
same,Clotting time,"[2]; experiment 4, 0.1 mg/ml",>60 min
Native dextran,Complement activation and cytolytic complex deposition on the cells,[3],no such an effect
"high molecular weight dextran [HMW-D, reference compound]",Clot formation / clotting time versus no additives,[2],extended the clotting time to only a minor degree
same,Clotting time,"[2]; experiment 1, 0.01 mg/ml",19.8 min
same,Clotting time,"[2]; experiment 1, 0.1 mg/ml",14.2 min
same,Clotting time,"[2]; experiment 2, 0.01 mg/ml",13.8 min
same,Clotting time,"[2]; experiment 2, 0.1 mg/ml",33.2 min
CMDB25 dextran sulfate,Complement activation and cytolytic complex deposition on the cells,[3],inhibited
"Low molecular weight dextran [LMW-D, reference compound]",Clot formation / clotting time versus no additives,[2],extended the clotting time to only a minor degree
same,Clotting time,"[2]; experiment 1, 0.01 mg/ml",19.2 min
same,Clotting time,"[2]; experiment 1, 0.1 mg/ml",25.2 min
same,Clotting time,"[2]; experiment 2, 0.01 mg/ml",11.3 min
same,Clotting time,"[2]; experiment 2, 0.1 mg/ml",25.8 min
same,Effect on IBMIR,"[4]; 1 mg/ml, 60 min API perfusion, in words",only a marginal effect
same,C3a,[4]; [12],1490.3 ± 406.4 ng/mL
same,FXIa-AT,[4]; [12],1.09 ± 0.08 µmol/L
same,Granulocytes (×10^9/l),[4]; [12],1.90 ± 0.43 ×10^9/l
same,Lymphocytes (×10^9/l),[4]; [12],2.14 ± 0.32 ×10^9/l
same,Monocytes (×10^9/l),[4]; [12],0.29 ± 0.08 ×10^9/l
same,Platelets (×10^9/l),[4]; [12],44.9 ± 18.7 ×10^9/l
same,TAT,[4]; [12],4429.2 ± 2002.5 µg/mL
same,sC5b-9 (AU/ml),[4]; [12],157.3 ± 19.1 AU/ml
dextran sulfate,Lung survival,[5],about 200 min
same,Effect of dextran sulfate alone on hyperglycemia,[6],some beneficial effect in a few mice
Low molecular weight dextran sulfate [LMW-DS],Clot formation / clotting time versus no additives,[2],totally abrogated
same,Clotting time,"[2]; experiment 1, 0.01 mg/ml",>60 min
same,Clotting time,"[2]; experiment 1, 0.1 mg/ml",>60 min
same,Clotting time,"[2]; experiment 2, 0.01 mg/ml",>60 min
same,Clotting time,"[2]; experiment 2, 0.1 mg/ml",>60 min
same,Clotting time,"[2]; experiment 3, 0.01 mg/ml",>60 min
same,Clotting time,"[2]; experiment 3, 0.1 mg/ml",>60 min
same,Clotting time,"[2]; experiment 4, 0.01 mg/ml",>60 min
same,Clotting time,"[2]; experiment 4, 0.1 mg/ml",>60 min
same,Generation of C3a,"[4]; 0.01 mg/ml, FIG. 1, in words",significantly reduces
same,"Coagulation activation products TAT, FXIa-AT and FXIIa-AT","[4]; 0.01 mg/ml, in words",suppressed
same,PAP,"[4]; 0.01 mg/ml, in words",significantly suppressed
same,Generation of C3a and membrane attack complex sC5b-9,"[4]; 0.1 mg/ml and 1 mg/ml, FIGS. 1 and 2, in words",totally inhibits
same,C3a,[4]; [12],171.5 ± 72.4 ng/mL
same,FXIa-AT,[4]; [12],1.56 ± 0.82 µmol/L
same,Granulocytes (×10^9/l),[4]; [12],3.23 ± 0.21 ×10^9/l
same,Lymphocytes (×10^9/l),[4]; [12],1.94 ± 0.12 ×10^9/l
same,Monocytes (×10^9/l),[4]; [12],0.38 ± 0.10 ×10^9/l
same,Platelets (×10^9/l),[4]; [12],181.1 ± 16.3 ×10^9/l
same,TAT,[4]; [12],12.8 ± 4.9 µg/mL
same,sC5b-9 (AU/ml),[4]; [12],41.6 ± 11.5 AU/ml
same,C3a,[4]; [13],630.6 ± 103.4 ng/mL
same,FXIIa-AT,[4]; [13],0.08 ± 0.02 µmol/L
same,FXIIa-C1 inh,[4]; [13],0.10 ± 0.03 µmol/mL
same,FXIa-AT,[4]; [13],0.13 ± 0.01 µmol/L
same,Granulocytes (×10^9/l),[4]; [13],2.20 ± 0.40 ×10^9/l
same,Lymphocytes (×10^9/l),[4]; [13],1.90 ± 0.11 ×10^9/l
same,Monocytes (×10^9/l),[4]; [13],0.48 ± 0.10 ×10^9/l
same,PAP,[4]; [13],398.2 ± 60.7 ng/mL
same,Platelets (×10^9/l),[4]; [13],108.2 ± 12.9 ×10^9/l
same,TAT,[4]; [13],645.3 ± 177.4 µg/mL
same,sC5b-9 (AU/ml),[4]; [13],151.4 ± 27.9 AU/ml
same,C3a,[4]; [14],191.7 ± 36.6 ng/mL
same,FXIa-AT,[4]; [14],0.08 ± 0.01 µmol/L
same,Granulocytes (×10^9/l),[4]; [14],2.80 ± 0.50 ×10^9/l
same,Lymphocytes (×10^9/l),[4]; [14],1.91 ± 0.12 ×10^9/l
same,Monocytes (×10^9/l),[4]; [14],0.40 ± 0.07 ×10^9/l
same,Platelets (×10^9/l),[4]; [14],146.1 ± 8.1 ×10^9/l
same,TAT,[4]; [14],61.0 ± 8.6 µg/mL
same,sC5b-9 (AU/ml),[4]; [14],61.9 ± 6.5 AU/ml
same,C3a,[4]; [15],215.6 ± 52.2 ng/mL
same,FXIa-AT,[4]; [15],1.17 ± 0.41 µmol/L
same,Granulocytes (×10^9/l),[4]; [15],2.92 ± 0.37 ×10^9/l
same,Lymphocytes (×10^9/l),[4]; [15],1.89 ± 0.10 ×10^9/l
same,Monocytes (×10^9/l),[4]; [15],0.31 ± 0.05 ×10^9/l
same,Platelets (×10^9/l),[4]; [15],162.3 ± 8.9 ×10^9/l
same,TAT,[4]; [15],15.0 ± 5.6 µg/mL
same,sC5b-9 (AU/ml),[4]; [15],53.9 ± 7.1 AU/ml
same,Coagulation and complement activation,"[4]; dose-dependent, in words",reduced
same,Blood cell consumption,[4]; in words,inhibited
same,Macroscopic clotting,[4]; in words,prevented
same,FXIIa-C1 INH,"[4]; presence or absence of LMW-DS, in words",did not change
same,Generation of C3a and sC5b-9 in human serum,[7]; 0.01 mg/ml,increased generation
same,Generation of C3a and sC5b-9 in human serum,[7]; 1 mg/ml,inhibitory effect
same,Mean graft survival,[8],8.8 ± 1.9 days
same,Number of infiltrating CD11b+ cells,"[9]; 1 mg/ml, 60 min, FIG. 5, in words",decreased considerably
same,Clot formation around islets,"[9]; 1 mg/ml, 60 min, in words",complete inhibition
same,Layer of platelets adhering to the islets,"[9]; FIG. 7, in words",much thinner layer
same,Frequency of clot formation and intensity of leukocyte infiltration versus untreated recipients,"[10]; p=0.034, in words",significantly lower
same,Islets entrapped in clots,"[10]; treated mice, FIG. 9, in words",only a few islets
same,Infiltrating CD11b+ (MAC-1+) cells,"[10]; treated mice, FIG. 11, in words",markedly fewer
